Source: patent US20100173832A1, “ANTICANCEROUS POLYMERIC AGENTS” (TECHNION RESEARCH & DEVELOPMENT FOUNDATION LTD., priority 2007, published 2010)
Non-standard residues stand in square brackets, D forms with d. Residues, ends and D or L forms follow the SMILES beside them. *: point of attachment. Lauroyl = CCCCCCCCCCCC(=O)*; Aoc = NCCCCCCCC(=O)O

assay: XTT cell viability assay, non-cancerous cardiac fibroblasts (CF); format: cell-based, rat; settings: primary cardiac fibroblasts (CF); primary non-cancerous rat cardiac fibroblasts, XTT assay; read-out: CF lethal concentration
Source text: Primary non-cancerous rat cardiac fibroblasts (CF);
As a routine cancer cell killing assay for assessment of antitumor activity, 2,3-bis(2-methoxy-4-nitro-5-sulfophenyl)-2H-tetrazolium-5-carboxanilide inner salt (XTT) reduction assay was used, utilizing a commercial kit such as, for example, Cell Proliferation XTT Kit, Cat. No. 20-300-1000, Biological Industries Ltd., Kibbutz Beit Haemek, Israel. XTT is a tetrazolium salt which is cleaved to formazan colored compounds by the mitochondrial dehydrogenase enzymes indicating proper mitochondrial activity in intact cells.
Thereafter, a series of increasing concentrations of the polymers were added. After another 24 hours of incubation, XTT reaction solution was added (50 μl of XTT per 100 μl of cell culture medium). The optical density of the cells was measured at 450 nm by ELISA plate reader after 2-4 hours XTT incubation. Cell viability was determined relative to a control having no polymer added thereto.
“Rat primary cardiac fibroblast CF” represents the lethal concentration in μM as measured against CF cell line, measured as described hereinabove in the cell proliferation XTT assay (column 8 in Table 3);

Q: For `CCCCCCCCCCCC(=O)N[C@@H](CCCCN)C(=O)NCCCCCCCCCCCC(=O)N[C@@H](CCCCN)C(=O)NCCCCCCCCCCCC(=O)N[C@@H](CCCCN)C(=O)O` [C12K(NC12K)2], which CC50 at 24 h is on record?
A: > 16 µM

Q: With `CCCCCCCCCCCC(=O)N[C@@H](CCCCN)C(=O)NCCCCCCCCCCCC(=O)N[C@@H](CCCCN)C(N)=O` [C12KNC12KNH2] as the compound, how does the CC50 at 24 h read?
A: > 16 µM

Q: Which CC50 at 24 h does the source give for `NCCCCCCCCCCCC(=O)N[C@@H](CCCCN)C(=O)NCCCCCCCCCCCC(=O)N[C@@H](CCCCN)C(=O)NCCCCCCCCCCCC(=O)N[C@@H](CCCCN)C(=O)O` [(NC12K)3] here?
A: > 16 µM

Q: With `CCCCCCCCCCCC(=O)N[C@@H](CCCCN)C(=O)NCCCCCCCCCCCC(=O)N[C@@H](CCCCN)C(=O)NCCCCCCCCCCCC(=O)N[C@@H](CCCCN)C(=O)NCCCCCCCCCCCC(=O)N[C@@H](CCCCN)C(N)=O` [C12K(NC12K)3NH2] as the compound, how does the CC50 at 24 h read?
A: > 16 µM

Q: With `NCCCC[C@H](NC(=O)CCCCCCCCCCCNC(=O)[C@H](CCCCN)NC(=O)CCCCCCCCCCCNC(=O)[C@H](CCCCN)NC(=O)CCCCCCCCCCCNC(=O)[C@@H](N)CCCCN)C(N)=O` [K(NC12K)3NH2] as the compound, how does the CC50 at 24 h read?
A: > 16 µM

Q: Which CC50 at 24 h does the source give for `NCCCCCCCCCCCC(=O)N[C@@H](CCCCN)C(=O)NCCCCCCCCCCCC(=O)N[C@@H](CCCCN)C(=O)NCCCCCCCCCCCC(=O)N[C@@H](CCCCN)C(=O)NCCCCCCCCCCCC(=O)N[C@@H](CCCCN)C(=O)O` [(NC12K)4] here?
A: > 16 µM

Q: Which CC50 at 24 h does the source give for `NCCCCCCCCCCCC(=O)N[C@@H](CCCCN)C(=O)NCCCCCCCCCCCC(=O)N[C@@H](CCCCN)C(N)=O` [(NC12K)2NH2] here?
A: > 16 µM

Q: Which CC50 at 24 h does the source give for `CCCCCCCCCCCC(=O)N[C@@H](CCCCN)C(=O)NCCCCCCCCCCCC(=O)N[C@@H](CCCCN)C(=O)NCCCCCCCCCCCC(=O)N[C@@H](CCCCN)C(N)=O` [C12K(NC12K)2NH2] here?
A: > 16 µM

Q: Which CC50 at 24 h does the source give for `NCCCCCCCCCCCC(=O)N[C@@H](CCCCN)C(=O)NCCCCCCCCCCCC(=O)N[C@@H](CCCCN)C(=O)NCCCCCCCCCCCC(=O)N[C@@H](CCCCN)C(N)=O` [(NC12K)3NH2] here?
A: > 16 µM

Q: With `NCCCC[C@H](NC(=O)CCCCCCCCCCCNC(=O)[C@H](CCCCN)NC(=O)CCCCCCCCCCCNC(=O)[C@H](CCCCN)NC(=O)CCCCCCCCCCCNC(=O)[C@H](CCCCN)NC(=O)CCCCCCCCCCCNC(=O)[C@H](CCCCN)NC(=O)CCCCCCCCCCCNC(=O)[C@@H](N)CCCCN)C(N)=O` [K(NC12K)5NH2] as the compound, how does the CC50 at 24 h read?
A: > 16 µM

Q: With `NCCCC[C@H](NC(=O)CCCCCCCCCCCNC(=O)[C@@H](N)CCCCN)C(N)=O` [KNC12KNH2] as the compound, how does the CC50 at 24 h read?
A: > 16 µM

Q: With `NCCCC[C@H](NC(=O)CCCCCCCCCCCNC(=O)[C@H](CCCCN)NC(=O)CCCCCCCCCCCNC(=O)[C@H](CCCCN)NC(=O)CCCCCCCCCCCNC(=O)[C@H](CCCCN)NC(=O)CCCCCCCCCCCNC(=O)[C@H](CCCCN)NC(=O)CCCCCCCCCCCNC(=O)[C@H](CCCCN)NC(=O)CCCCCCCCCCCNC(=O)[C@H](CCCCN)NC(=O)CCCCCCCCCCCNC(=O)[C@@H](N)CCCCN)C(N)=O` [K(NC12K)7NH2] as the compound, how does the CC50 at 24 h read?
A: > 16 µM

Q: For `CCCCCCCCCCCC(=O)N[C@@H](CCCCN)C(=O)NCCCCCCCC(=O)N[C@@H](CCCCN)C(=O)N[C@@H](CCCCN)C(=O)NCCCCCCCC(=O)N[C@@H](CCCCN)C(=O)N[C@@H](CCCCN)C(=O)NCCCCCCCC(=O)N[C@@H](CCCCN)C(N)=O` [C12(KNC8K)3NH2] (Lauroyl-K[Aoc]KK[Aoc]KK[Aoc]K-NH2), which CC50 at 24 h is on record?
A: < 16 µM

Q: Which CC50 at 24 h does the source give for `NCCCCCCCCCCCC(=O)N[C@@H](CCCCN)C(=O)NCCCCCCCCCCCC(=O)N[C@@H](CCCCN)C(=O)O` [(NC12K)2] here?
A: > 16 µM

Q: For `NCCCC[C@H](NC(=O)CCCCCCCCCCCNC(=O)[C@H](CCCCN)NC(=O)CCCCCCCCCCCNC(=O)[C@H](CCCCN)NC(=O)CCCCCCCCCCCNC(=O)[C@@H](N)CCCCN)C(=O)O` [K(NC12K)3], which CC50 at 24 h is on record?
A: > 16 µM

Q: For `CCCCCCCCCCCC(=O)N[C@@H](CCCCN)C(=O)NCCCCCCCC(=O)N[C@@H](CCCCN)C(=O)N[C@@H](CCCCN)C(=O)NCCCCCCCC(=O)N[C@@H](CCCCN)C(=O)N[C@@H](CCCCN)C(=O)NCCCCCCCC(=O)N[C@@H](CCCCN)C(=O)N[C@@H](CCCCN)C(=O)NCCCCCCCC(=O)N[C@@H](CCCCN)C(N)=O` [C12(KNC8K)4NH2] (Lauroyl-K[Aoc]KK[Aoc]KK[Aoc]KK[Aoc]K-NH2), which CC50 at 24 h is on record?
A: < 16 µM
